{
  "source": "paper PMC9067113",
  "about": "(IUCrJ, 2022)",
  "key": {"[1]": {"biological_target": "T1, β-lactoglobulin I56F/L39A/M107F (FAF) (Bos taurus, UniProt P02754, I18S/I72F/L17A/L55A/M123F)", "T1 sequence (P02754 17-178 L17A/I18S/L55A/I72F/M123F)": "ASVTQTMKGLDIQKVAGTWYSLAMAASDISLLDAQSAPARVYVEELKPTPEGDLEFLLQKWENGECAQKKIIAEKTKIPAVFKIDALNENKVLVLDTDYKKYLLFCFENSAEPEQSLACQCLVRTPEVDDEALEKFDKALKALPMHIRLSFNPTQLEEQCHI", "conditions": "for N, stoichiometry: one set of binding sites model"}, "[2]": {"biological_target": "T2, β-lactoglobulin I56F/L39A/M107W (FAW) (Bos taurus, UniProt P02754, I18S/I72F/L17A/L55A/M123W)", "T2 sequence (P02754 17-178 L17A/I18S/L55A/I72F/M123W)": "as the sequence (P02754 17-178 L17A/I18S/L55A/I72F/M123F) above, with F107W counted along it"}, "natural β-lactoglobulin": {"biological_target": "natural β-lactoglobulin (Bos taurus, UniProt P02754)", "sequence (P02754 17-178)": "as the sequence (P02754 17-178 L17A/I18S/L55A/I72F/M123F) above, with A1L, S2I, A39L, F56I, F107M counted along it"}, "[3]": {"biological_target": "T2, β-lactoglobulin I56F/L39A/M107W (FAW)", "conditions": "50 mM phosphate buffer pH 7.5"}, "[4]": {"biological_target": "T1, β-lactoglobulin I56F/L39A/M107F (FAF)", "conditions": "50 mM phosphate buffer pH 7.5"}},
  "note": "Where two headings read alike, the source gives them in different places.",
  "data": [
    {"smiles": "CNCCCN1c2ccccc2CCc2ccccc21", "note": "[DSM, desipramine]", "values": [
      {"measurement": "N, stoichiometry", "setting": "[1]; pH 7.5, 25 mM HEPES, 150 mM NaCl, 293 K", "result": "0.94 ± 0.06"},
      {"measurement": "TΔS a", "setting": "[1]; pH 7.5, 293 K", "result": 4.2192, "unit": "kcal/mol"},
      {"measurement": "ΔH a, enthalpy change", "setting": "[1]; pH 7.5, 293 K", "result": "-1.634 ± 0.133", "unit": "kcal/mol"},
      {"measurement": "ΔS a, entropy change", "setting": "[1]; pH 7.5, 293 K", "result": 14.4, "unit": "cal mol^−1 K^−1"},
      {"measurement": "TΔS a", "setting": "[1]; pH 8.5, Tris buffer, 293 K", "result": 5.3033, "unit": "kcal/mol"},
      {"measurement": "ΔS a, entropy change", "setting": "[1]; pH 8.5, Tris buffer, 293 K", "result": 18.1, "unit": "cal mol^−1 K^−1"},
      {"measurement": "N, stoichiometry", "setting": "[1]; pH 8.5, Tris buffer, 293 K", "result": "1.21 ± 0.08"},
      {"measurement": "outcome of ITC titration at pH 8.5", "setting": "[2]; Tris buffer pH 8.5", "result": "insufficient enthalpy change for the calculation of binding parameters"},
      {"measurement": "N, stoichiometry", "setting": "[2]; pH 7.5, 25 mM HEPES, 150 mM NaCl, 293 K, one set of binding sites model", "result": "0.92 ± 0.05"},
      {"measurement": "TΔS a", "setting": "[2]; pH 7.5, 293 K", "result": 4.2485, "unit": "kcal/mol"},
      {"measurement": "ΔH a, enthalpy change", "setting": "[2]; pH 7.5, 293 K", "result": "-1.792 ± 0.137", "unit": "kcal/mol"},
      {"measurement": "ΔS a, entropy change", "setting": "[2]; pH 7.5, 293 K", "result": 14.5, "unit": "cal mol^−1 K^−1"},
      {"measurement": "N, stoichiometry", "setting": "natural β-lactoglobulin; Natural BLG, pH 7.5, 25 mM HEPES, 150 mM NaCl, 293 K, one set of binding sites model", "result": "0.91 ± 0.08"},
      {"measurement": "TΔS a", "setting": "natural β-lactoglobulin; Natural BLG, pH 7.5, 293 K", "result": 4.395, "unit": "kcal/mol"},
      {"measurement": "ΔH a, enthalpy change", "setting": "natural β-lactoglobulin; Natural BLG, pH 7.5, 293 K", "result": "-1.298 ± 0.145", "unit": "kcal/mol"},
      {"measurement": "ΔS a, entropy change", "setting": "natural β-lactoglobulin; Natural BLG, pH 7.5, 293 K", "result": 15.0, "unit": "cal mol^−1 K^−1"},
      {"measurement": "outcome of ITC titration at pH 8.5", "setting": "natural β-lactoglobulin; native protein, Tris buffer pH 8.5", "result": "insufficient enthalpy change for the calculation of binding parameters"},
      {"measurement": "stoichiometry (DSM molecule per BLG chain), CD", "setting": "[3]", "result": 1},
      {"measurement": "stoichiometry (DSM molecule per BLG chain), CD", "setting": "[4]", "result": 1}
    ]}
  ]
}
